# Results reported in patent US11066414B2, “Cot modulators and methods of use thereof” (Gilead Sciences, Inc., priority 2015, dated 2021).
# pEC50, pIC50: −log10 of the molar value. Where two headings read alike, the source gives them in different places.
# Experiments:
# [1] = system: TNFα; experiment: Cot Monocyte TNFα Cell Based Assay
# [2] = target: Human Cot (Homo sapiens (Human), UniProt P41279); experiment: High Throughput Cot Biochemical Assay
# [3] = Homo sapiens, Monocyte, read-out: EC50 TNF, LPS-stimulated human monocytes, TNFα TR-FRET
# [4] = IC50 HTRF, Cot HTRF (TR-FRET KinEASE) biochemical assay, 400 μM ATP
# [5] = Homo sapiens, Monocyte, read-out: EC50 TNF, LPS-stimulated human monocytes, TNFα
# [6] = IC50 HTRF, Cot HTRF (TR-FRET) biochemical assay
# [7] = read-out: EC50 TNF, LPS-stimulated human monocytes, TNFα
# [8] = read-out: IC50 HTRF, Cot HTRF (TR-FRET) biochemical assay
# Sequence of Human Cot (P41279 30-397): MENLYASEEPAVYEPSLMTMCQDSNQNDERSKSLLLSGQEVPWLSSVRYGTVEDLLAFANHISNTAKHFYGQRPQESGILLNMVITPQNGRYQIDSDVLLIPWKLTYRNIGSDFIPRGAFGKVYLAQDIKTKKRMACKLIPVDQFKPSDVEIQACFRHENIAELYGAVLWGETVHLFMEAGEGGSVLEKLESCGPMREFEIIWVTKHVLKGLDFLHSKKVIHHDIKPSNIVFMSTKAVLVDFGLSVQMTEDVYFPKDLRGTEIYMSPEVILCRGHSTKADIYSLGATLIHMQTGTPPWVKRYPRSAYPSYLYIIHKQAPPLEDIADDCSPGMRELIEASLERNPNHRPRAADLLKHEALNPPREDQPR
"pEC50 [1, 3]","pIC50 [2, 4]","pEC50 [1, 5]","pIC50 [2, 6]",other results,Structure (SMILES)
7.36,8.15,,,,"Cc1nc(F)ccc1[C@H](Nc1cc(C#N)c2ncc(C#N)c(NCC(C)(C)C(F)(F)F)c2c1)c1nnn([C@@H](C)CF)c1F [Example 858, 6-(((S)-(5-fluoro-1-((S)-1-fluoropropan-2-yl)-1H-1,2,3-triazol-4-yl)(6-fluoro-2-methylpyridin-3-yl)methyl)amino)-4-((3,3,3-trifluoro-2,2-dimethylpropyl)amino)quinoline-3,8-dicarbonitrile]"
,,7.16,8.52,,"CC(C)(C)CNc1c(C#N)cnc2c(Cl)cc(N[C@H](c3cn(C4(C)CC4)nn3)c3cccc4cnccc34)cc12 [Example 564, (S)-8-chloro-6-((isoquinolin-5-yl(1-(1-methylcyclopropyl)-1H-1,2,3-triazol-4-yl)methyl)amino)-4-(neopentylamino)-quinoline-3-carbonitrile]"
,,6.59,7.57,,"Cn1ncc2cccc([C@H](Nc3cc(Cl)c4ncc(C#N)c(NCC(C)(C)C)c4c3)c3cn(C4(C(F)(F)F)CC4)nn3)c21 [Example 521, (S)-8-chloro-6-(((1-methyl-1H-indazol-7-yl)(1-(1-(trifluoromethyl)-cyclopropyl)-1H-1,2,3-triazol-4-yl)methyl)amino)-4-(neopentylamino)-quinoline-3-carbonitrile]"
,,6.00,8.52,,"Cc1nc(F)ccc1[C@H](Nc1cc(F)c2ncc(C#N)c(NCC(C)(C)C)c2c1)c1cn(C2(C(N)=O)CC2)nn1 [Example 486, (S)-1-(4-(((3-cyano-8-fluoro-4-(neopentyl-amino)quinolin-6-yl)amino)(6-fluoro-2-methylpyridin-3-yl)methyl)-1H-1,2,3-triazol-1-yl)cyclopropane-1-carboxamide]"
,,6.03,7.80,,"Cc1ncsc1[C@H](Nc1cc(Cl)c2ncc(C#N)c(N[C@H](C)c3ccccc3)c2c1)c1cn(C(C)C)nn1 [Example 239, 8-chloro-6-(((R)-(1-isopropyl-1H-1,2,3-triazol-4-yl)(4-methylthiazol-5-yl)methyl)amino)-4-(((R)-1-phenylethyl)amino)quinoline-3-carbonitrile]"
6.48,7.96,,,,"COc1ccc2c([C@H](Nc3cc(C#N)c4ncc(C#N)c(NCC(C)(C)C)c4c3)c3cn(C4(C(F)(F)F)CC4)nn3)cccc2n1 [Example 811, (S)-6-(((2-methoxyquinolin-5-yl)(1-(1-(trifluoromethyl)cyclopropyl)-1H-1,2,3-triazol-4-yl)methyl)amino)-4-(neopentylamino)quinoline-3,8-dicarbonitrile]"
7.68,8.52,,,,"Cc1nc(F)ccc1[C@H](Nc1cc(C#N)c2ncc(C#N)c(NCC(C)(C)C)c2c1)c1cn(C2(C(C)C)CC2)nn1 [Example 851, (S)-6-(((6-fluoro-2-methylpyridin-3-yl)(1-(1-isopropylcyclopropyl)-1H-1,2,3-triazol-4-yl)methyl)amino)-4-(neopentylamino)quinoline-3,8-dicarbonitrile]"
,,7.22,8.40,,"Cc1ncsc1[C@H](Nc1cc(Cl)c2ncc(C#N)c(Nc3ccc(F)c(Cl)c3)c2c1)c1cn(C2CCN(C(C)(C)C)CC2)nn1 [Example 307, (R)-6-(((1-(1-(tert-butyl)piperidin-4-yl)-1H-1,2,3-triazol-4-yl)(4-methylthiazol-5-yl)methyl)amino)-8-chloro-4-((3-chloro-4-fluorophenyl)amino)quinoline-3-carbonitrile]"
,,,,"pEC50 [1, 7]: < 6.00; pIC50 [2, 8]: 6.40","CC(C)(C)CNc1c(C#N)cnc2c(Cl)cc(N[C@@H](c3cn(C4CC4)nn3)c3csc4c3CCN(C3COC3)C4)cc12 [Example 81, (R)-8-chloro-6-(((1-cyclopropyl-1H-1,2,3-triazol-4-yl)(6-(oxctan-3-yl)-4,5,6,7-tetrahydrothieno[2,3-c]pyridin-3-yl)methyl)amino)-4-(neopentylamino)-quinoline-3-carbonitrile]"
7.74,8.70,,,,"Cn1ccc2c([C@H](Nc3cc(C#N)c4ncc(C#N)c(NCC(C)(C)C(F)(F)F)c4c3)c3cn(C4(C5CC5)CC4)nn3)cccc2c1=O [Example 882, (S)-6-(((1-([1,1′-bi(cyclopropan)]-1-yl)-1H-1,2,3-triazol-4-yl)(2-methyl-1-oxo-1,2-dihydroisoquinolin-5-yl)methyl)amino)-4-((3,3,3-trifluoro-2,2-dimethylpropyl)amino)quinoline-3,8-dicarbonitrile]"
,,7.19,8.52,,"Cc1ncsc1[C@H](Nc1cc(C#N)c2ncc(C#N)c(NCC(C)(C)C)c2c1)c1cn(C2(C(F)F)CC2)nn1 [Example 640, (R)-6-(((1-(1-(difluoromethyl)-cyclopropyl)-1H-1,2,3-triazol-4-yl)(4-methylthiazol-5-yl)methyl)amino)-4-(neopentylamino)quinoline-3,8-dicarbonitrile]"
7.03,8.70,,,,"COc1c([C@@H](Nc2cc(Cl)c3ncc(C#N)c(NCC(C)(C)C)c3c2)c2ccc(F)nc2C)nnn1C12CC(C1)C2 [Example 968, (S)-6-(((1-(bicyclo[1.1.1]pentan-1-yl)-5-methoxy-1H-1,2,3-triazol-4-yl)(6-fluoro-2-methylpyridin-3-yl)methyl)amino)-8-chloro-4-(neopentylamino)quinoline-3-carbonitrile]"
,,6.01,9.00,,"CC(C)(C)CNc1c(C#N)cnc2c(C#N)cc(N[C@H](c3cn(C4(C(N)=O)CC4)nn3)c3cccc4ncccc34)cc12 [Example 575, (S)-1-(4-(((3,8-dicyano-4-(neopentylamino)-quinolin-6-yl)amino)(quinolin-5-yl)methyl)-1H-1,2,3-triazol-1-yl)cyclopropane-1-carboxamide]"
,,,,"pEC50 [1, 7]: 6.62; pIC50 [2, 8]: 7.96","CC(C)n1cc([C@@H](Nc2cc(Cl)c3ncc(C#N)c(Nc4ccc(F)c(Cl)c4)c3c2)c2ccc3ncsc3c2)nn1 [Example 61, (S)-6-((benzo[d]thiazol-6-yl(1-isopropyl-1H-1,2,3-triazol-4-yl)nielhyl)amino)-8-chloro-4-((3-chloro-4-fluorophenyl)amino)quinoline-3-carbonitrile]"
,,5.67,7.17,,"CC(C)n1cc([C@@H](Nc2cc(Cl)c3ncc(C#N)c(N[C@@H](c4ccccc4)C(C)(C)O)c3c2)c2cccnc2)nn1 [Example 187, 8-chloro-4-(((S)-2-hydroxy-2-methyl-1-phenylpropyl)amino)-6-(((S)-(1-isopropyl-1H-1,2,3-triazol-4-yl)(pyridin-3-yl)methyl)amino)-quinoline-3-carbonitrile]"
,,6.84,8.52,,"[2H][C@](Nc1cc(C#N)c2ncc(C#N)c(NCC(C)(C)C)c2c1)(c1ccc(F)nc1)c1cn(C)nn1 [Example 99, (S)-6-(((6-fluoropyridin-3-yl)(1-methyl-1H-1,2,3-triazol-4-yl)methyl-d)amino)-4-(neopentylamino)quinoline-3,8-dicarbonitrile]"
7.24,8.70,,,,"Cc1nc(F)ccc1[C@H](Nc1cc(C#N)c2ncc(C#N)c(NCC(C)(C)C)c2c1)c1cn(C2(C)COC2)nn1 [Example 852, (S)-6-(((6-fluoro-2-methylpyridin-3-yl)(1-(3-methyloxetan-3-yl)-1H-1,2,3-triazol-4-yl)methyl)amino)-4-(neopentylamino)quinoline-3,8-dicarbonitrile]"
